Measured values reported in PubChem BioAssay AID2202554 (NIEHS Division of Translational Toxicology (DTT)).
Inconclusive results are not listed. Activity calls are given as the source filed them. No rule for the calls is given here.

What follows are compounds tested on S. typhimurium/E. coli reverse mutation, colony counts (assay: Bacterial reverse mutation test (aka Ames test) summary data).
Method in brief: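 Revertant colony counts on plates, compared with untreated controls, after about two days of growth. Exposure with or without liver S9 (rat/hamster/mouse), dose range per strain, 20-min 37° C preincubation or direct plate incorporation. Strains: his⁻ Salmonella, trp⁻ E. coli WP2 uvrA pKM101.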
`CCCCCCCCCCCCCC(=O)N[N+](C)(C)CC(C)[O-]` (stereo not given) was tested, and the outcome was “inactive; negative”.
With `C=CC(=O)OCCCCCCOC(=O)C=C` the outcome was “inactive; negative”.
With `[O-][N+](=Nc1ccc(Cl)c(Cl)c1)c1ccc(Cl)c(Cl)c1` the outcome was “inactive; negative”.
`C=C(C)C(=O)OCCC` was tested, and the outcome was “inactive; negative”.
For `CC(C)CCC(C)Nc1ccc(NC(C)CCC(C)C)cc1` (stereo not given), the outcome was “inactive; negative”.
With `Cc1cc(C)c(S(=O)(=O)O)cc1N=Nc1cc(S(=O)(=O)O)c2ccccc2c1O` the outcome was “inactive; negative”.
With `CC/C(=C(/CC)c1ccc(O)cc1)c1ccc(O)cc1` the outcome was “inactive; negative”.
In the case of `Nc1cccc2c(=O)[nH][nH]c(=O)c12`, the outcome is reported as “inactive; negative”.
For `NC(=Nc1ccccc1)Nc1ccccc1`, the outcome was “active; weakly positive”.
In the case of `NCCCCCCN`, the outcome is reported as “inactive; negative”.
`COc1ccccc1[N+](=O)[O-]` was tested, and the outcome was “active; positive”.
For `COc1ccc(C(=O)c2ccccc2O)c(O)c1`, the outcome was “active; positive”.
In the case of `N#CCc1ccccc1[N+](=O)[O-]`, the outcome is reported as “active; positive”.
In the case of `CNNC`, the outcome is reported as “inactive; negative”.
In the case of `Cc1cccc(C#N)c1`, the outcome is reported as “inactive; negative”.
`CCCCCNCCCCC` was tested, and the outcome was “inactive; negative”.
`CN(C)CCOC(C)(c1ccccc1)c1ccccn1` (stereo not given) was tested, and the outcome was “inactive; negative”.
For `Nc1cc([N+](=O)[O-])cc(Cl)c1O`, the outcome was “active; positive”.
With `Cc1ccc2c(c1[N+](=O)[O-])C(=O)c1ccccc1C2=O` the outcome was “active; positive”.
With `CCCl` the outcome was “active; positive”.
In the case of `N#CCCl`, the outcome is reported as “inactive; negative”.
With `C=C(C)C` the outcome was “inactive; negative”.
`Cc1ccc([N+](=O)[O-])c(C(=O)O)c1` was tested, and the outcome was “active; positive”.
In the case of `O=[N+]([O-])C(Br)(Br)Br`, the outcome is reported as “active; weakly positive”.
`C[CH2][Pb]([CH2]C)([CH2]C)[CH2]C` was tested, and the outcome was “inactive; negative”.
With `CCCC(=O)OCC` the outcome was “inactive; negative”.
In the case of `CCCCCCCCCCCOC(=O)c1ccccc1C(=O)OCCCCCCCCCCC`, the outcome is reported as “inactive; negative”.
`N#CC(O)c1ccccc1` (stereo not given) was tested, and the outcome was “inactive; negative”.
`COc1ccc([N+](=O)[O-])cc1N` was tested, and the outcome was “active; positive”.
For `FCC1CO1` (stereo not given), the outcome was “active; positive”.
`Nc1ccc([N+](=O)[O-])cc1O` was tested, and the outcome was “active; positive”.
For `COC(=O)NC(=S)Nc1ccccc1NC(=S)NC(=O)OC`, the outcome was “active; positive”.
In the case of `O=CC(=O)c1ccccc1`, the outcome is reported as “active; positive”.
`Oc1c(Cl)cc(Cl)c(Cl)c1Cc1c(O)c(Cl)cc(Cl)c1Cl` was tested, and the outcome was “inactive; negative”.
In the case of `CC(C)CN(CC(C)C)CC(C)C`, the outcome is reported as “inactive; negative”.
For `C[S+](CC[C@H](N)C(=O)[O-])C[C@H]1O[C@@H](n2cnc3c(N)ncnc32)[C@H](O)[C@@H]1O` (stereo not given in full), the outcome was “inactive; negative”.
In the case of `O=[N+]([O-])c1ccccc1C(F)(F)F`, the outcome is reported as “inactive; negative”.
For `OCCO`, the outcome was “inactive; negative”.
`Clc1nc2ccccc2nc1Cl` was tested, and the outcome was “inactive; negative”.
With `CC(=O)C(C)=O` the outcome was “active; positive”.
For `Nc1ccc(N=Nc2ccc(-c3ccc(N=Nc4c(S(=O)(=O)O)cc5cc(S(=O)(=O)O)c(N=Nc6ccccc6)c(O)c5c4N)cc3)cc2)c(N)c1`, the outcome was “active; positive”.
`CCOC(=O)C1=C[C@]2(CC)CCCN3CCc4c(n1c1ccccc41)[C@@H]32` was tested, and the outcome was “inactive; negative”.
With `c1ccc2c(c1)CCCC2` the outcome was “inactive; negative”.
`CCCCOP(=O)(OCCCC)Oc1ccccc1` was tested, and the outcome was “inactive; negative”.
In the case of `NC(=O)c1cccnc1`, the outcome is reported as “inactive; negative”.
`COc1ccc(N)cc1` was tested, and the outcome was “active; positive”.
For `O=C(Cc1ccccc1)OCc1ccccc1`, the outcome was “inactive; negative”.
With `CC[C@H]1CN2CCc3cc(OC)c(OC)cc3[C@@H]2C[C@@H]1C[C@H]1NCCc2cc(OC)c(OC)cc21` the outcome was “inactive; negative”.
In the case of `COc1ccccc1O`, the outcome is reported as “inactive; negative”.
For `CC(N)=O`, the outcome was “inactive; negative”.
For `COC(C)=O`, the outcome was “inactive; negative”.
`CCOc1cc(C=O)ccc1O` was tested, and the outcome was “inactive; negative”.
With `CCOC(=O)CC(SP(=O)(OC)OC)C(=O)OCC` (stereo not given) the outcome was “inactive; negative”.
`O=C1O[C@H]([C@H](O)CO)C(O)=C1O` was tested, and the outcome was “active; weakly positive”.
With `c1ccc(OP(Oc2ccccc2)Oc2ccccc2)cc1` the outcome was “inactive; negative”.
`N#CC(Cl)(Cl)Cl` was tested, and the outcome was “active; weakly positive”.
With `CNc1ccc2nc3ccc(=[N+](C)C)cc-3sc2c1` the outcome was “active; positive”.
In the case of `CCCCCCCCCCCCOCC1CO1` (stereo not given), the outcome is reported as “inactive; negative”.
In the case of `CN=c1ccc2nc3ccc(N)cc3sc-2c1`, the outcome is reported as “active; positive”.
For `Cc1cccc(OP(=O)(Oc2cccc(C)c2)Oc2cccc(C)c2)c1`, the outcome was “inactive; negative”.
